Experimental data as given in US7223733B2, “Modulation of TRIP-Br function and method of treating proliferative disorders” (National University of Singapore, priority 2004, dated 2007).
Where no end group is shown, it is not given here. [invdT] = inverted (3'-3') thymidine

Experiments:
Type in all cases: cell-based, human
WI-38 cells = experiment: BrdU incorporation, E2F1/DP1 and cyclin E/Cdk2-induced S phase entry of quiescent WI-38 cells; settings: quiescent WI-38, 0.1 μM
Procedure: Cell proliferation assays. For the BrdU incorporation assays, growth-quiescent WI-38 cells in 96-well dishes were transfected with DNA enzyme and/or 100 ng of pCMV/E2F1, pCMV/DP1, pRSV/Cyclin E, or pCMV/Cdk2 and then exposed to Bromodeoxyuridine (BrdU, 100 μM) in the presence or absence of 10% FBS for 20 h. Bromodeoxyuridine (BrdU) incorporation was monitored with a calorimetric ELISA assay using a cell proliferation kit according to manufacturer's recommendations (Boehringer Mannheim). For manual cell count, growth-quiescent WI-38 cells in 24-well dishes were transfected with DNA enzyme and then exposed to 10% FBS for 72 h. The cells were rinsed with PBS, pH 7.4, and trypsinized, and 10 μl of cell suspension was taken from each sample and mixed with equal volume of trypan blue stain (Sigma, 0.4% w/v in 1×PBS). The number of unstained cells was enumerated manually using a hemocytometer. For colony formation assays, growth-quiescent WI-38 cells in 12-well dishes were transfected with DNA enzyme and then exposed to 10% FBS for 120 h. Cells were stained in situ with crystal violet (0.75% w/v hexamethyl-p-rosaniline chloride [SIGMA], 50% ethanol, 1.75% w/v paraformaldehyde, 0.25% w/v NaCl) for 10 min, and then rinsed thoroughly with deionized water to remove excess stains.
FIG. 13: (A) E-Br1 or E-Br2 suppresses serum-inducible S phase entry. […]

[1] = system: E2F-responsive luciferase reporter (pGL3-TATA-6xE2F-Luc); experiment: E2F-responsive luciferase reporter assay in U2OS cells; settings: 50 μM, 5 h
Procedure: DNA Transfection and Sequential β-Galactosidase/Luciferase Assay. For luciferase reporter assays, U2OS cells were cultured in 6-well dishes and transfected 24 h later with various reporter plasmids by the calcium precipitation method as previously described (Martin, K., et al. Nature 375, 691-694 (1995)). 24 h following precipitate removal, cells were exposed for 5 h to either vehicle (0.5% DMSO) or 50 μM of decoy peptide, prior to harvesting. Cells were scraped in 200 μl of lysis buffer and a single 10 μl aliquot of lysate was immediately used for sequential measurement of β-galactosidase and luciferase activity using the Dual Light System (Tropix). For protein overexpression experiments, U2OS cells were cultured in 6-well plates at a density of 1×10^5 cells/well and transfected 24 h later with Superfect reagent (QIAGEN).
FIG. 3: Analysis of E2F-responsive transcription in U2OS cells in response to decoy peptide treatment. […] Values represent the average +/− standard deviation of at least two independent experiments; (B) Semi-quantitative RT-PCR analysis on total RNA for dhfr, cyclin-E, cyclin A2, PCNA, DNA Pola and cdc2 expression in U2OS cells exposed for 16 h to either vehicle (0.5% DMSO) or 50 μM of the indicated decoy peptides. […]

Geminin = experiment: Protein decay analysis of Geminin in U2OS cells (cycloheximide); settings: for Geminin steady state levels at 5-h post-CHX treatment: cycloheximide; for Geminin protein decay kinetics: cycloheximide 20 μg/ml, 0-5 h
Procedure: Protein decay analysis. Transfected or peptide-treated cells were exposed to 20 μg/ml cycloheximide (CHX). Whole cell lysates were prepared from the treated cells at 0, 1, 2, 3, 4 or 5-h post-CHX treatment for Western blot analysis. FIG. 7: Cell cycle protein expression profile and protein decay analysis. (A) Protein expression profile of U2OS cells released from nocodazole arrest in the absence or presence of decoy peptide treatment. Protein expression of various cyclins and Cdks was assessed by Western blotting using whole cell lysates from synchronized U2OS cells at 4, 8, 12, 16, 20 and 24 h after release. Coomassie-stained proteins served as loading controls; (B) U2OS cells transfected with vector backbone (vehicle) or pRc/cyclin E and pCMV/Cdk2 (1 μg each), were arrested at the G2/M boundary by exposure to nocodazole (75 ng/ml) and then released to re-enter the cell cycle. Protein expression of cyclin E and Geminin was assessed using whole cell lysates from synchronized U2OS cells at 0, 4, 8, 12, 16 and 20 h after release; (C) Protein decay analysis of Geminin expression in the absence or presence of cyclin E/Cdk2 over-expression (left panel) or in the absence or presence of decoy peptide treatment (right panel) by Western blotting (WB). Coomassie stained proteins served as the loading control (C).

5′-T TACCCAACAGGCTAGCTACAACGAATATCACA-3′ (DNA TTACCCAACAGGCTAGCTACAACGAATATCACA; DNA, 3' [invdT], backbone not given here) [E-Br2]
S phase entry induced by co-expression of E2F1/DP1 and cyclin E/Cdk2 (WI-38 cells): does not influence

5′-T TGCTCAGCAGGCTAGCTACAACGACTTGCTCA-3′ (DNA TTGCTCAGCAGGCTAGCTACAACGACTTGCTCA; DNA, 3' [invdT], backbone not given here) [E-Br1]
S phase entry induced by co-expression of E2F1/DP1 and cyclin E/Cdk2 (WI-38 cells): does not influence

ERQIKIWFQNRRMKWKKATGCLLDDGLEGLFEDID (ERQIKIWFQNRRMKWKKATGCLLDDGLEGLFEDID-NH2) [*Br1]
transcriptional activity of the E2F-responsive luciferase reporter [1]: decreased the transcriptional activity | Geminin steady state levels at 5-h post-CHX treatment (Geminin): remained persistently high | Geminin protein decay kinetics (Geminin): significantly slower decay rate

ERQIKIWFQNRRMKWKKTGFLTDLTLDDILFADID (ERQIKIWFQNRRMKWKKTGFLTDLTLDDILFADID-NH2) [*Br2]
transcriptional activity of the E2F-responsive luciferase reporter [1]: decreased the transcriptional activity | Geminin steady state levels at 5-h post-CHX treatment (Geminin): remained persistently high | Geminin protein decay kinetics (Geminin): significantly slower decay rate
